Results from patent US8497261B2, “3-aminocaprolactam compounds for treating inflammatory disorders” (Cambridge Enterprise Limited, priority 2004, dated 2013).
One block for each compound: values may come before it.

Legend:
[1] = cited from earlier work
[2] = system: chemokine-induced migration; test: Chemokine-induced migration in vitro (prior compounds); assay type: cell-based; conditions: compared with (S)-3-(undec-10-enoyl)-aminoglutarimide
Stability in human serum = assay type: in vitro ADME; conditions: 37° C.
Excerpt: As an approach to identifying such stable anlogs, various derivatives of (S)-3-(undec-10-enoyl)-aminoglutarimide have been tested for their stability in serum.

Compound: c(DCys-DG1n-DIle-DTrp-DLys-DG1n-DLys-DPro-DAsp-DLeu-DCys)-NH2 [NR583.14.3]
- half-life period of clearance from blood plasma ([1]; after intravenous injection): less than 30 minutes
- oral bioavailability ([1]; in vivo, po): not orally bioavailable

- melting point: 182 to 184 °C
Compound: CCCCC[C@H]1CC[C@H](C(=O)N[C@H]2CCCNC(=O)C2)CC1 [Example 4, (S)-3-(trans-4′-pentylcyclohexane-1-carbonyl)amino-caprolactam]

- time completely stable in human serum (Stability in human serum): at least 7 days
Compound: C=CCCCCCCCCC(=O)[C@@H]1CCCNC1=O [(S)-3-(undec-10-enoyl)-tetrahydropyridin-2-one]
- potency compared with the parental molecule [2]: considerably reduced potency
